For one assay, the system named is HCT-116. The experiment in a line: Inhibitory concentration against human colon cancer HCT116 cell line. It counts as functional, cell-based.
Assay [1] concerns the target Cyclin-dependent kinase 2/cyclin E (Homo sapiens, UniProt P24941). As to the kind of experiment: Inhibitory concentration against Cyclin dependant kinase 2-cyclinE. Type of assay: protein-complex assay.
Assay [2] addresses Cyclin-dependent kinase 4/cyclin D1 (Homo sapiens, UniProt P11802). The experiment in a line: Inhibitory concentration against Cyclin dependant kinase 4-cyclinD1. It counts as protein-complex assay.

pIC50: −log10 of the molar value.

As usually defined, the pIC50 is the IC50 on a negative log10 scale, so that one unit is a factor of ten.

Sequence of Cyclin-dependent kinase 4/cyclin D1 (P11802 whole entry): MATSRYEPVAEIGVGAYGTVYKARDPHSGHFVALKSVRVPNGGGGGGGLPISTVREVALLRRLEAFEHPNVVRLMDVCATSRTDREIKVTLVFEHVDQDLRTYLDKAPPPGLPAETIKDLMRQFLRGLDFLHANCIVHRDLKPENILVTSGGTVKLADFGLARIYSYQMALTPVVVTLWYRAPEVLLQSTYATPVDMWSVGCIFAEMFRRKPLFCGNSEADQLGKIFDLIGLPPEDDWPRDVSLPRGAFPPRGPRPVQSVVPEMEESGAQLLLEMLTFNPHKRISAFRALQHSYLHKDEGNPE
Sequence of Cyclin-dependent kinase 4/cyclin D1 (P24385 whole entry, further chain): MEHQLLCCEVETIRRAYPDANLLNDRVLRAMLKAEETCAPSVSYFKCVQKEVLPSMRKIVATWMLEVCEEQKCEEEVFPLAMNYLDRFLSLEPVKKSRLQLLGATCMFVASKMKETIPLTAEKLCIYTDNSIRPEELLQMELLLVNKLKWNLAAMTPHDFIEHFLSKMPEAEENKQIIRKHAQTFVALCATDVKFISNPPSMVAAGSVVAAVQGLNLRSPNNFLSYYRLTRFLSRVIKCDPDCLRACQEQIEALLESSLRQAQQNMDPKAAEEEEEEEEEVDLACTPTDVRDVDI

In the case of `COc1ccc(-c2[nH]nc3c2C(=O)c2c(NC(=O)NNC(=O)c4ccncc4)cccc2-3)cc1`, the pIC50 is 6.72 in the assay with HCT-116, 8.00 in assay [1] and 8.05 in assay [2].

Consider `COc1ccc(C(=O)NNC(=O)Nc2cccc3c2C(=O)c2c(-c4ccc(OC)cc4)n[nH]c2-3)cc1`, for which the pIC50 in assay [1] and in assay [2] was 8.00 throughout.

Regarding `COc1ccc(-c2[nH]nc3c2C(=O)c2c(NC(=O)NNC(=O)c4cc(OC)cc(OC)c4)cccc2-3)cc1`, the pIC50 in assay [1] is 7.40; in assay [2] it was 7.70.

On to `COc1ccc(-c2[nH]nc3c2C(=O)c2c(NC(=O)NNC(=O)c4cc(Cl)ccc4Cl)cccc2-3)cc1`, for which the values for the pIC50 in assay [1] and in assay [2] were 7.52 and 7.70, respectively.

For `COc1ccc(-c2[nH]nc3c2C(=O)c2c(NC(=O)NNC(=O)c4ccc(O)cc4)cccc2-3)cc1`, the negative-log IC50 (pIC50) in the assay with HCT-116 was 5.96; in assay [2], 8.30.

For `COC(=O)NNC(=O)Nc1cccc2c1C(=O)c1c-2n[nH]c1-c1ccc(OC)cc1`, the results for the pIC50 (in the assay with HCT-116; in assay [1]; in assay [2]) were 7.30, 8.00 and 8.10, respectively.

Consider `COc1ccc(-c2[nH]nc3c2C(=O)c2c(NC(=O)NNC(=O)c4ccccc4O)cccc2-3)cc1`, for which the pIC50 in the assay on HCT-116 is 7.10; in assay [1], 8.05; in assay [2], 7.22.

Regarding `COc1ccc(-c2[nH]nc3c2C(=O)c2c(NC(=O)NNC(=O)c4ccc5ccccc5c4)cccc2-3)cc1`, the figures for the pIC50 (in the assay with HCT-116; in assay [1]; in assay [2]) were 6.92, 7.52 and 8.00, respectively.

In assay [1], `COc1ccc(-c2[nH]nc3c2C(=O)c2c(NC(=O)NNC(=O)c4cccc5ccccc45)cccc2-3)cc1` had a negative-log IC50 (pIC50) of 7.30.

Turning to `COc1ccc(-c2[nH]nc3c2C(=O)c2c(NC(=O)NNC(=O)CCc4ccc(O)cc4)cccc2-3)cc1`, the figures for the pIC50 in assay [1] and in assay [2] were 8.00 and 8.05, respectively.

Consider `COc1ccc(-c2[nH]nc3c2C(=O)c2c(NC=O)cccc2-3)cc1`, for which the figures for the negative-log IC50 (pIC50) in assay [1] and in assay [2] were 6.62 and 6.40, respectively.

`COc1ccc(-c2[nH]nc3c2C(=O)c2c(NC(=O)NNC(C)=O)cccc2-3)cc1`: the pIC50 in assay [1] is 7.52; in assay [2], 7.30.

`COc1ccc(-c2[nH]nc3c2C(=O)c2c(NC(=O)NNC(=O)c4ccccc4OC)cccc2-3)cc1`: the values for the pIC50 (with HCT-116; in assay [1]) were 7.40 and 8.00, respectively.

In the case of `COc1ccc(-c2[nH]nc3c2C(=O)c2c(NC(=O)NNC(=O)c4cc(N)cc(N)c4)cccc2-3)cc1`, the pIC50 in assay [1] is 7.52; in assay [2], 8.00.

In the case of `COc1ccc(-c2[nH]nc3c2C(=O)c2c(NC(=O)NNC(=O)c4cccc(C)c4)cccc2-3)cc1`, the pIC50 in assay [1] is 8.00; in assay [2] it was 8.15.

As for `COc1ccc(-c2[nH]nc3c2C(=O)c2c(NC(=O)NNC(=O)c4ccccc4)cccc2-3)cc1`, the values for the pIC50 (in the assay with HCT-116; in assay [1]; in assay [2]) were 7.52, 8.00 and 8.15, respectively.

In the case of `COc1ccc(-c2[nH]nc3c2C(=O)c2c(NC(=O)NNC(=O)c4cccc([N+](=O)[O-])c4)cccc2-3)cc1`, the pIC50 is 7.70 in assay [1] and 8.00 in assay [2].

As to `COc1ccc(-c2[nH]nc3c2C(=O)c2c(NC(=O)NNC(=O)c4cccnc4)cccc2-3)cc1`, the pIC50 is 6.72 with HCT-116, 8.00 in assay [1] and 8.05 in assay [2].

`COc1ccc(-c2[nH]nc3c2C(=O)c2c(NC(=O)NNC(=O)c4cccc(N)c4)cccc2-3)cc1`: the results for the negative logarithm of the IC50 (pIC50) (with HCT-116; in assay [1]; in assay [2]) were 7.10, 8.00 and 8.15, respectively.

Consider `COc1ccc(-c2[nH]nc3c2C(=O)c2c(NC(=O)NNC(=O)Nc4ccccc4)cccc2-3)cc1`, for which the figures for the pIC50 (with HCT-116; in assay [1]) were 6.55 and 8.00, respectively.

As to `COc1ccc(-c2[nH]nc3c2C(=O)c2c(NC(=O)NNC(=O)c4cc(OC)c(OC)c(OC)c4)cccc2-3)cc1`, the values for the pIC50 in assay [1] and in assay [2] were 7.70 and 8.15, respectively.

For the molecule `COc1ccc(-c2[nH]nc3c2C(=O)c2c(NC(=O)NNC(=O)c4ccc(O)cc4O)cccc2-3)cc1`, the results for the pIC50 (in the assay on HCT-116; in assay [1]; in assay [2]) were 6.60, 8.00 and 8.00, respectively.

As for `COc1ccc(-c2[nH]nc3c2C(=O)c2c(NC(=O)NNC(=O)Cc4ccccc4)cccc2-3)cc1`, the negative-log IC50 (pIC50) is 7.52 in assay [1] and 7.70 in assay [2].

Take `COc1ccc(-c2[nH]nc3c2C(=O)c2c(NC(=O)NNC(=O)c4ccc(N)cc4)cccc2-3)cc1`: the pIC50 in the assay with HCT-116 is 7.15; in assay [1] it was 8.00; in assay [2], 8.00.

With `COc1ccc(-c2[nH]nc3c2C(=O)c2c(NC(=O)NNC(=O)c4ccc(C)cc4)cccc2-3)cc1`, the figures for the negative logarithm of the IC50 (pIC50) (with HCT-116; in assay [1]) were 6.85 and 7.70, respectively.

As to `COc1ccc(-c2[nH]nc3c2C(=O)c2c(NC(=O)NNC(=O)c4ccc(O)c(N)c4)cccc2-3)cc1`, the values for the pIC50 in assay [1] and in assay [2] were 7.70 and 8.15, respectively.

In the case of `COc1ccc(-c2[nH]nc3c2C(=O)c2c(NC(=O)NNC(=O)C(C)C)cccc2-3)cc1`, the figures for the negative logarithm of the IC50 (pIC50) in assay [1] and in assay [2] were 8.00 and 8.19, respectively.

On to `COc1ccc(-c2[nH]nc3c2C(=O)c2c(NC(=O)NNC(=O)C(N)=O)cccc2-3)cc1`, for which the figures for the pIC50 (with HCT-116; in assay [1]; in assay [2]) were 5.92, 7.05 and 6.62, respectively.

As for `COc1ccc(-c2[nH]nc3c2C(=O)c2c(NC(=O)NNC(=O)c4ccc(O)c(O)c4)cccc2-3)cc1`, the negative logarithm of the IC50 (pIC50) in assay [1] is 8.00; in assay [2] it was 8.30.

`COc1ccc(-c2[nH]nc3c2C(=O)c2c(NC(=O)NNC(N)=O)cccc2-3)cc1` had a pIC50 in assay [1] of 6.89.
